As a reminder, the inhibition is how much of the control response was suppressed. The low end stands for a response near the control, the high end for a response far below the control.

One assay concerns ZR-75-1 cells. As to the kind of experiment: CTG Assay (CellTiter-Glo Luminescent Cell Viability Assay), cell proliferation. The format is cell-based. To be noted: Homo sapiens, 160 nM, 72 h. The method, then:
Cell proliferation was measured using the CellTiter-Glo® Luminescent Cell Viability Assay. The assay involved the addition of a single reagent (CellTiter-Glo® Reagent) directly to cells cultured in serum-supplemented medium. ZR-75-1 (ATCC® CRL-1500) cells were cultured according to ATCC recommendations and were seeded at 10,000 cells per well.
Compound 5A and Palbociclib were prepared as a DMSO stock solution (10 mM). Plates were incubated at 37° C., 5% CO2 for 72 h and then equilibrated at room temperature for approximately 30 min. An equal-volume amount of CellTiter-Glo® Reagent (100 μL) was added to each well. Plates were mixed for 2 min on an orbital shaker to induce cell lysis and then incubated at RT for 10 min to stabilize the luminescent signal. Luminescence (RLU (relative light unit)) was recorded using a SpectraMAX, M5e plate reader according to CellTiter-Glo protocol. Percent inhibition was calculated using the following formula: % inhibition=(RLU*100/(RLU of the cell background)). IC50 of each compound was calculated using GraphPad Prism by nonlinear regression analysis.

A further assay relates to MCF-7 cells. As to the kind of experiment: Xenograft Tumor Model, MCF-7 (ER+ Breast cancer) mouse model. The class given is in vivo. To be noted: MCF-7 xenograft mice, 50 mg/kg p.o. As to the method:
Mice were inoculated with MCF-7 cells subcutaneously on the 2nd right mammary fat pad with the single cell suspension of 95% viable tumor cells (1×10^7) in 100 μL DMEM Matrigel mixture (1:1 ratio) without serum for the tumor development. The treatment was started when the mean tumor size reached approximately 226 mm^3, with individual tumor size ranging from 185-245 mm^3. Animals were randomly distributed into treatment groups of 10 animals each and dosed with vehicle and indicated compounds at indicated dosage and frequency provided in FIG. 4 and Table 3. In FIG. 4, the bottom line with star is Compound 5A (200 mg/kg p.o. qd×24)+Palbociclib (50 mg/kg p.o. pd×24). Tumor volumes were evaluated twice per week to calculate tumor volume over time, and mice were weighed twice per week as a surrogate for signs of toxicity. Tumor growth inhibition (TGI) was calculated using the following equation TGI=(1−(Td−T0)/(Cd−C0))×100%. Td and Cd are the mean tumor volumes of the treated and control animals, and TO and C0 are the mean tumor volumes of the treated and control animals at the start of the experiment. The tumor regression was defined as individual tumor volume (TV) decrease (terminal TV compared to initial TV). The percent tumor regression was calculated using the formula: (1−(Td/T0))×100%.

For `CC(=O)c1c(C)c2cnc(Nc3ccc(N4CCNCC4)cn3)nc2n(C2CCCC2)c1=O` [Palbociclib], in the assay on ZR-75-1 cells, the inhibition at 0.16 µM worked out at 20%. The “TUMOR REGRESSION % (DAY 23)” value in the assay with MCF-7 cells came out at 0%.

Values taken from US20230158048A1, “COMBINATIONS” (Recurium IP Holdings, LLC, priority 2020, published 2023).
